Tests used:
rice (Diamant variety) [1] = assay: Rice seed treatment with BHMPA salts: germination energy and germination rate; type: in vivo
In short: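 Corn, winter wheat and rice seeds (50 per dish, on filter paper) were soaked for 1 h in BHMPA or its metal salts at 1·10^−6-1·10^−12%, with water as control. Germination energy was read on day 4 and germination rate on day 8 for wheat and day 7 for rice and corn, following GOST 12038-84, as the mean of four replicates.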

rice (Diamant variety) [2] = assay: Rice seed treatment with BHMPA salts: germinating power; type: in vivo
In short: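 Seeds (50 per Petri dish on two layers of filter paper) soaked 1 h in BHMPA or its Ca, Mg, Na, Co, Mn, Cu or Zn salts at 1·10^−6-1·10^−12%, with water controls. Germination energy read on day 4, germination on day 8 (wheat) or day 7 (rice, corn), as % means of four replicates. Germinating power taken as root and sprout length plus wet and dry mass per 100 seedlings.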

[3] = rice seed treatment, solution 1 · 10^−10%
[4] = seed treatment, concentration 1 · 10^−6%
[5] = seed treatment, concentration 1 · 10^−7%
[6] = seed treatment, concentration 1 · 10^−8%
[7] = seed treatment, concentration 1 · 10^−9%
[8] = seed treatment, concentration 1 · 10^−10%
[9] = seed treatment, concentration 1 · 10^−11%
[10] = seed treatment, concentration 1 · 10^−12%
[11] = rice seed treatment, comparison with Melaphen (Table XXXIII), solution 1 · 10^−10%
[12] = rice seeds, solution concentration 1 · 10^−6%
[13] = rice seeds, solution concentration 1 · 10^−7%
[14] = rice seeds, solution concentration 1 · 10^−8%
[15] = rice seeds, solution concentration 1 · 10^−9%
[16] = rice seeds, solution concentration 1 · 10^−10%
[17] = rice seeds, solution concentration 1 · 10^−11%
[18] = rice seeds, solution concentration 1 · 10^−12%
[19] = rice, vs control, 1·10^−10% solution

Compound: O=P([O-])(CO)CO.O=P([O-])(CO)CO.[Mg+2] [Mg-salt, Magnesium BHMPA Salt]
- Germination energy, % (rice (Diamant variety) [1]; [3]): 87.5%
- Germination rate, % (rice (Diamant variety) [1]; [3]): 94.0%
- Germination energy (rice (Diamant variety) [1]; rice, 1·10^−10% solution): 86.3%
- Germination rate (rice (Diamant variety) [1]; rice, 1·10^−10% solution): 92.7%
- Germination energy (rice (Diamant variety) [1]; [4]): 77.7%
- Germination rate (rice (Diamant variety) [1]; [4]): 83.3%
- Germination energy (rice (Diamant variety) [1]; [5]): 80.3%
- Germination rate (rice (Diamant variety) [1]; [5]): 85.0%
- Germination energy (rice (Diamant variety) [1]; [6]): 81.7%
- Germination rate (rice (Diamant variety) [1]; [6]): 87.3%
- Germination energy (rice (Diamant variety) [1]; [7]): 84.3%
- Germination rate (rice (Diamant variety) [1]; [7]): 90.7%
- Germination energy (rice (Diamant variety) [1]; [8]): 86.3%
- Germination rate (rice (Diamant variety) [1]; [8]): 92.7%
- Germination energy (rice (Diamant variety) [1]; [9]): 83.3%
- Germination rate (rice (Diamant variety) [1]; [9]): 89.3%
- Germination energy (rice (Diamant variety) [1]; [10]): 79.3%
- Germination rate (rice (Diamant variety) [1]; [10]): 84.7%
- optimum concentration for treating rice seeds before sowing (rice (Diamant variety) [2]; rice): 1·10^−10%
- Length, root (rice (Diamant variety) [2]; [11]): 7.2 cm
- Length, root, + % to control (rice (Diamant variety) [2]; [11]): 50%
- Length, sprout (rice (Diamant variety) [2]; [11]): 4.6 cm
- Length, sprout, + % to control (rice (Diamant variety) [2]; [11]): 77%
- Mass, dry, root (rice (Diamant variety) [2]; [11]): 0.26 g/100 plantlings
- Mass, dry, root, + % to control (rice (Diamant variety) [2]; [11]): 24%
- Mass, dry, sprout (rice (Diamant variety) [2]; [11]): 0.30 g/100 plantlings
- Mass, dry, sprout, + % to control (rice (Diamant variety) [2]; [11]): 20%
- Mass, wet, root (rice (Diamant variety) [2]; [11]): 1.39 g/100 plantlings
- Mass, wet, root, + % to control (rice (Diamant variety) [2]; [11]): 42%
- Mass, wet, sprout (rice (Diamant variety) [2]; [11]): 2.39 g/100 plantlings
- Mass, wet, sprout, + % to control (rice (Diamant variety) [2]; [11]): 58%
- Length, root (rice (Diamant variety) [2]; [12]): 6.0 cm
- Length, root, + % to control (rice (Diamant variety) [2]; [12]): 13%
- Length, sprout (rice (Diamant variety) [2]; [12]): 2.8 cm
- Length, sprout, + % to control (rice (Diamant variety) [2]; [12]): 4%
- Mass, dry, root (rice (Diamant variety) [2]; [12]): 0.23 g/100 plantlings
- Mass, dry, root, + % to control (rice (Diamant variety) [2]; [12]): 4.5%
- Mass, dry, sprout (rice (Diamant variety) [2]; [12]): 0.35 g/100 plantlings
- Mass, dry, sprout, + % to control (rice (Diamant variety) [2]; [12]): 21%
- Mass, wet, root (rice (Diamant variety) [2]; [12]): 1.17 g/100 plantlings
- Mass, wet, root, + % to control (rice (Diamant variety) [2]; [12]): 18%
- Mass, wet, sprout (rice (Diamant variety) [2]; [12]): 1.96 g/100 plantlings
- Mass, wet, sprout, + % to control (rice (Diamant variety) [2]; [12]): 10%
- Length, root (rice (Diamant variety) [2]; [13]): 6.4 cm
- Length, root, + % to control (rice (Diamant variety) [2]; [13]): 21%
- Length, sprout (rice (Diamant variety) [2]; [13]): 2.9 cm
- Length, sprout, + % to control (rice (Diamant variety) [2]; [13]): 7%
- Mass, dry, root (rice (Diamant variety) [2]; [13]): 0.25 g/100 plantlings
- Mass, dry, root, + % to control (rice (Diamant variety) [2]; [13]): 14%
- Mass, dry, sprout (rice (Diamant variety) [2]; [13]): 0.40 g/100 plantlings
- Mass, dry, sprout, + % to control (rice (Diamant variety) [2]; [13]): 40%
- Mass, wet, root (rice (Diamant variety) [2]; [13]): 1.26 g/100 plantlings
- Mass, wet, root, + % to control (rice (Diamant variety) [2]; [13]): 27%
- Mass, wet, sprout (rice (Diamant variety) [2]; [13]): 2.21 g/100 plantlings
- Mass, wet, sprout, + % to control (rice (Diamant variety) [2]; [13]): 24%
- Length, root (rice (Diamant variety) [2]; [14]): 6.6 cm
- Length, root, + % to control (rice (Diamant variety) [2]; [14]): 24.5%
- Length, sprout (rice (Diamant variety) [2]; [14]): 3.0 cm
- Length, sprout, + % to control (rice (Diamant variety) [2]; [14]): 11%
- Mass, dry, root (rice (Diamant variety) [2]; [14]): 0.26 g/100 plantlings
- Mass, dry, root, + % to control (rice (Diamant variety) [2]; [14]): 18%
- Mass, dry, sprout (rice (Diamant variety) [2]; [14]): 0.43 g/100 plantlings
- Mass, dry, sprout, + % to control (rice (Diamant variety) [2]; [14]): 48%
- Mass, wet, root (rice (Diamant variety) [2]; [14]): 1.35 g/100 plantlings
- Mass, wet, root, + % to control (rice (Diamant variety) [2]; [14]): 36%
- Mass, wet, sprout (rice (Diamant variety) [2]; [14]): 2.31 g/100 plantlings
- Mass, wet, sprout, + % to control (rice (Diamant variety) [2]; [14]): 30%
- Length, root (rice (Diamant variety) [2]; [15]): 7.0 cm
- Length, root, + % to control (rice (Diamant variety) [2]; [15]): 32%
- Length, sprout (rice (Diamant variety) [2]; [15]): 3.2 cm
- Length, sprout, + % to control (rice (Diamant variety) [2]; [15]): 18.5%
- Mass, dry, root (rice (Diamant variety) [2]; [15]): 0.29 g/100 plantlings
- Mass, dry, root, + % to control (rice (Diamant variety) [2]; [15]): 32%
- Mass, dry, sprout (rice (Diamant variety) [2]; [15]): 0.47 g/100 plantlings
- Mass, dry, sprout, + % to control (rice (Diamant variety) [2]; [15]): 62%
- Mass, wet, root (rice (Diamant variety) [2]; [15]): 1.46 g/100 plantlings
- Mass, wet, root, + % to control (rice (Diamant variety) [2]; [15]): 46%
- Mass, wet, sprout (rice (Diamant variety) [2]; [15]): 2.37 g/100 plantlings
- Mass, wet, sprout, + % to control (rice (Diamant variety) [2]; [15]): 33%
- Length, root (rice (Diamant variety) [2]; [16]): 7.2 cm
- Length, root, + % to control (rice (Diamant variety) [2]; [16]): 36%
- Length, sprout (rice (Diamant variety) [2]; [16]): 3.8 cm
- Length, sprout, + % to control (rice (Diamant variety) [2]; [16]): 41%
- Mass, dry, root (rice (Diamant variety) [2]; [16]): 0.35 g/100 plantlings
- Mass, dry, root, + % to control (rice (Diamant variety) [2]; [16]): 59%
- Mass, dry, sprout (rice (Diamant variety) [2]; [16]): 0.49 g/100 plantlings
- Mass, dry, sprout, + % to control (rice (Diamant variety) [2]; [16]): 69%
- Mass, wet, root (rice (Diamant variety) [2]; [16]): 1.62 g/100 plantlings
- Mass, wet, root, + % to control (rice (Diamant variety) [2]; [16]): 63%
- Mass, wet, sprout (rice (Diamant variety) [2]; [16]): 2.52 g/100 plantlings
- Mass, wet, sprout, + % to control (rice (Diamant variety) [2]; [16]): 41.5%
- Length, root (rice (Diamant variety) [2]; [17]): 6.7 cm
- Length, root, + % to control (rice (Diamant variety) [2]; [17]): 26%
- Length, sprout (rice (Diamant variety) [2]; [17]): 3.1 cm
- Length, sprout, + % to control (rice (Diamant variety) [2]; [17]): 15%
- Mass, dry, root (rice (Diamant variety) [2]; [17]): 0.27 g/100 plantlings
- Mass, dry, root, + % to control (rice (Diamant variety) [2]; [17]): 23%
- Mass, dry, sprout (rice (Diamant variety) [2]; [17]): 0.44 g/100 plantlings
- Mass, dry, sprout, + % to control (rice (Diamant variety) [2]; [17]): 52%
- Mass, wet, root (rice (Diamant variety) [2]; [17]): 1.44 g/100 plantlings
- Mass, wet, root, + % to control (rice (Diamant variety) [2]; [17]): 45%
- Mass, wet, sprout (rice (Diamant variety) [2]; [17]): 2.34 g/100 plantlings
- Mass, wet, sprout, + % to control (rice (Diamant variety) [2]; [17]): 31%
- Length, root (rice (Diamant variety) [2]; [18]): 6.3 cm
- Length, root, + % to control (rice (Diamant variety) [2]; [18]): 19%
- Length, sprout (rice (Diamant variety) [2]; [18]): 2.9 cm
- Length, sprout, + % to control (rice (Diamant variety) [2]; [18]): 7%
- Mass, dry, root (rice (Diamant variety) [2]; [18]): 0.23 g/100 plantlings
- Mass, dry, root, + % to control (rice (Diamant variety) [2]; [18]): 4.5%
- Mass, dry, sprout (rice (Diamant variety) [2]; [18]): 0.39 g/100 plantlings
- Mass, dry, sprout, + % to control (rice (Diamant variety) [2]; [18]): 34%
- Mass, wet, root (rice (Diamant variety) [2]; [18]): 1.31 g/100 plantlings
- Mass, wet, root, + % to control (rice (Diamant variety) [2]; [18]): 32%
- Mass, wet, sprout (rice (Diamant variety) [2]; [18]): 2.18 g/100 plantlings
- Mass, wet, sprout, + % to control (rice (Diamant variety) [2]; [18]): 22%
- dry mass of the roots increased by (rice (Diamant variety) [2]; [19]): 59%
- dry mass of the sprouts increased by (rice (Diamant variety) [2]; [19]): 69%
- length of the root increased by (rice (Diamant variety) [2]; [19]): 36%
- length of the sprout increased by (rice (Diamant variety) [2]; [19]): 41%
- wet mass of the roots increased by (rice (Diamant variety) [2]; [19]): 63%
- wet mass of the sprouts increased by (rice (Diamant variety) [2]; [19]): 41.5%

Reference: patent US10781224B2, “Bis(oxymethyl)phosphinic acid and biogenic metal salts thereof as regulators of plant growth and development” (priority 2016, dated 2020)
